PubChem BioAssay (NCI)
Values joined by “and” are separate entries in the source; they are usually repeats but may differ in a detail not shown here. Identical values can stand only once.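 Grown in 96-well plates, cells were treated for 48 hours with each compound at five concentrations. Insufficient inhibition: endpoint recorded as highest concentration tested. GI50 is the concentration that inhibits growth by half. TGI is the concentration that stops growth completely.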

What was measured:
Experiment in all cases: NCI anticancer screen, dose series, 48 h
[1] = tested on: HCT-15 colon
[2] = tested on: UACC-62 melanoma
[3] = tested on: MCF7 breast
[4] = tested on: SK-MEL-5 melanoma
[5] = tested on: OVCAR-8 ovarian
[6] = tested on: ACHN renal
[7] = tested on: UO-31 renal
[8] = tested on: DU-145 prostate
[9] = tested on: UACC-257 melanoma
[10] = tested on: SF-295 CNS

Row | SMILES | GI50 [1] | TGI [1] | GI50 [2] | TGI [2] | GI50 [3] | TGI [3] | GI50 [4] | TGI [4] | GI50 [5] | TGI [5] | GI50 [6] | TGI [6] | GI50 [7] | TGI [7] | GI50 [8] | TGI [8] | GI50 [9] | TGI [9] | TGI [10] | GI50 [10]
1 | NNc1nc(-c2ccccn2)nc2sc3c(c12)CCCCCC3 | 1.12 µM | > 100 µM | 5.96 µM | 48.8 µM | 3.84 µM | > 100 µM | 3.16 µM | 24.1 µM | 4.39 µM | > 100 µM | 4.87 µM | 63.9 µM | 1.03 µM | 18.7 µM | 9.48 µM | > 100 µM | 6.61 µM | 77.4 µM | – | –
2 | O=C(/C=C/c1ccc2c(c1)OCO2)c1ccccc(=O)c1O | – | > 100 µM | – | 29.2 µM | – | – | – | 23 µM | – | 54.2 µM | – | > 100 µM | – | > 100 µM | – | 46.7 µM | – | 53.1 µM | – | –
3 | NC(CCCNCc1ccccc1O)C(=O)O (configuration not stated) | – | > 100 µM | – | > 100 µM | – | – | – | > 100 µM | – | > 100 µM | – | > 100 µM | – | > 100 µM | – | – | – | > 100 µM | > 100 µM | –
4 | COc1ccc(OC)c2c3c(ncc12)-c1cc2c(cc1C3)OCO2 | 3.87 µM | > 100 µM | > 100 µM | > 100 µM | – | – | 22.1 µM | > 100 µM | 9.48 µM | > 100 µM | 2.97 µM | > 100 µM | > 100 µM | > 100 µM | 48.4 µM | > 100 µM | 38.5 µM | > 100 µM | > 100 µM | 27 µM
5 | O=c1nc2[nH]nc(-c3ccccc3)c2n[nH]1 | – | > 100 µM | – | > 100 µM | – | – | – | – | – | > 100 µM | – | > 100 µM | – | > 100 µM | – | – | – | > 100 µM | > 100 µM | –
6 | O=C1CC23CC(=O)CC2(C1)c1ccccc1C3=O (configuration not stated) | – | – | – | > 100 µM | – | – | – | – | – | > 100 µM | – | > 100 µM | – | > 100 µM | – | – | – | > 100 µM | > 100 µM | –
7 | COC(=O)CCC(=O)C(C#N)c1ccc(Cl)cc1Cl (configuration not stated) | – | > 100 µM | – | > 100 µM | – | – | – | – | – | – | – | > 100 µM | – | > 100 µM | – | – | – | > 100 µM | > 100 µM | –
8 | CCCN1CN(C(C(=O)N[C@@H]2C(=O)N3C(C(=O)O)=C(C)CSC23)c2ccccc2)CSC1=S (some centres not stated) | – | > 100 µM | – | > 100 µM | – | – | – | > 100 µM | – | > 100 µM | – | > 100 µM | – | > 100 µM | – | – | – | > 100 µM | > 100 µM | –
9 | O=c1[nH]c(C2CCCCC2)nc2cc(Cl)ccc12 | – | > 100 µM | – | > 100 µM | – | – | – | > 100 µM | – | > 100 µM | – | > 100 µM | – | > 100 µM | – | – | – | > 100 µM | > 100 µM | –
10 | COC(=O)[C@]1(C)CCC[C@]2(C)C3CC4OOC3(C=C4C(C)C)CCC21 (some centres not stated) | – | 30.1 µM | – | 32.3 µM | – | – | – | 29.6 µM | – | 41.8 µM | – | 31.2 µM | – | 30.3 µM | – | – | – | 32 µM | 31.3 µM | –
11 | C/C(CC(=O)Nc1ccc([N+](=O)[O-])cc1)=N/N=C(N)N | – | – | – | > 100 µM | – | – | – | > 100 µM | – | > 100 µM | – | > 100 µM | – | > 100 µM | – | – | – | > 100 µM | > 100 µM | –
12 | Cn1c(-c2ccccc2)c/c(=N\NS(C)(=O)=O)c2cc(S(=O)(=O)O)ccc21 | – | > 100 µM | – | > 100 µM | – | – | – | > 100 µM | – | > 100 µM | – | > 100 µM | – | > 100 µM | – | – | – | > 100 µM | > 100 µM | –
13 | O=C(Nc1cccc(-n2cc(-c3ccncc3)c(-c3ccc(O)c(Cl)c3)n2)c1)Nc1ccc(Cl)c(C(F)(F)F)c1 | 2.58 µM | 10.9 µM | 2.13 µM | 5.07 µM | 1.8 µM | 4.34 µM | 1.66 µM | 3.07 µM | – | – | 2.64 µM | 10.9 µM | 2.65 µM | 7.24 µM | 2.54 µM | 7.76 µM | 1.98 µM | 4.39 µM | 5.12 µM | 1.88 µM
14 | [O-][N+]1=C(c2ccccc2)COc2ccccc21 | – | > 100 µM | – | > 100 µM | – | – | – | > 100 µM | – | > 100 µM | – | > 100 µM | – | > 100 µM | – | – | – | > 100 µM | > 100 µM | –
15 | O=C(CCc1cc(-c2ccco2)n(-c2ccc([N+](=O)[O-])cc2[N+](=O)[O-])n1)Nc1ccccc1 | – | > 100 µM | – | > 100 µM | – | – | – | > 100 µM | – | > 100 µM | – | > 100 µM | – | > 100 µM | – | – | – | > 100 µM | > 100 µM | –
16 | COC(=O)C12OCC34C(CC5C(C)=CC(=O)C(O)C5(C)C3C(O)C1O)OC(=O)C(OC(=O)CC(C)C)C24 (configuration not stated) | 0.0565 µM and 0.05 µM | – | 0.0478 µM and 0.05 µM | – | 0.000602 µM | 0.00221 µM | – | – | < 0.0391 µM and 0.05 µM | – | 0.0193 µM | 0.3 µM and 0.174 µM | 0.256 µM and 0.0637 µM | – | – | 0.00425 µM | 0.0788 µM and 0.05 µM | – | – | 0.077 µM
17 | COC(=O)C1CCc2nnc(-c3cccnc3)n21 (configuration not stated) | – | > 100 µM | – | > 100 µM | – | – | – | > 100 µM | – | > 100 µM | – | > 100 µM | – | > 100 µM | – | – | – | > 100 µM | – | –
18 | Cn1cc(-c2nc(-c3cn(C)c4ncccc34)cs2)c2cc(F)ccc21 | 1.51 µM | > 100 µM | 1.33 µM | > 100 µM | 0.528 µM | 60.5 µM | 0.847 µM | 3.37 µM | 3.26 µM | > 100 µM | 2.96 µM | > 100 µM | – | – | 2.79 µM | 21.9 µM | 6.33 µM | > 100 µM | 6.18 µM | 0.709 µM
19 | COC(=O)/C(Cl)=C1/CC1COCc1ccccc1 (configuration not stated) | – | 35.8 µM | – | 66.8 µM | – | – | – | 54.7 µM | – | > 100 µM | – | 81.6 µM | – | 67.5 µM | – | – | – | > 100 µM | > 100 µM | –
20 | CC(C)(C)C1CCN(C(=O)c2ccccc2)CC1 | – | > 100 µM | – | > 100 µM | – | – | – | > 100 µM | – | > 100 µM | – | > 100 µM | – | > 100 µM | – | – | – | > 100 µM | > 100 µM | –
21 | COC1=CC(=O)C2[C@H]3Cc4ccccc4[C@H]3C2(C)C1=O (some centres not stated) | – | > 100 µM | – | > 100 µM | – | – | – | > 100 µM | – | > 100 µM | – | > 100 µM | – | > 100 µM | – | – | – | > 100 µM | > 100 µM | –
22 | CN(C)CCOc1cccc(NC2=C(Cl)C(=O)C(Nc3cccc(OCCN(C)C)c3)=C(Cl)C2=O)c1 | 0.35 µM | 1.4 µM | 1.2 µM | 2.57 µM | – | – | 0.792 µM | 2.04 µM | 1.13 µM | 2.91 µM | 0.219 µM | 0.465 µM | 0.498 µM | 0.979 µM | 0.366 µM | 1.27 µM | 0.765 µM | 2.03 µM | 5.92 µM | 2.36 µM
